Our source for the Skin penetration amount and Skin penetration ratio values is US10251819B2, “Amphiphilic polymer” (LG Chem, Ltd., priority 2015, dated 2019).

The nature of this data set: Percutaneous absorption test of genistein-loaded amphiphilic polymer solution, Franz diffusion cell. It is filed as in vitro ADME, porcine. The protocol:
The percutaneous absorption of genistein of the amphiphilic polymer solution in which genistein was loaded and which was prepared as above was evaluated using porcine skin (2×2 cm, thickness: 1000 μm) and a Franz diffusion cell (FIG. 2). A phosphate buffered saline (PBS) solution containing 30 wt % of dipropylene glycol (DPG) was used as an aqueous solution (acceptor solution) to maintain a sink condition with respect to genistein. 0.2 g of the amphiphilic polymer solution on which genistein was loaded was loaded in a Franz diffusion cell on which the porcine skin was mounted, and the test was performed at 32° C. similar to a skin temperature for 24 hours. Skin tissue into which genistein was absorbed was pulverized and extracted to analyze the content of genistein absorbed into the skin tissue and the content of genistein absorbed into the acceptor solution through HPLC, and the results are shown in Table 3.

In the case of “polycaprolactone (B)-polyethylene glycol (A)-polycaprolactone (B) copolymer [Comparative Example 1]”, the Skin penetration amount is 0.15 μg/cm^2 and the Skin penetration ratio was found to be 0.09%.
